Usually DC50 stands for the concentration at which degradation of the target reaches its halfway point. A lower DC50 goes with a more potent degrader. As a reminder, the bioavailability is dose-corrected exposure relative to a reference, in per cent.

For 16 compounds, DC50 and bioavailability results are on record in patent publication US20250059164A1, “IRAK DEGRADERS AND USES THEREOF” (Kymera Therapeutics, Inc., priority 2023, published 2025).

The first series has as its target T1, IRAK4 (Homo sapiens, UniProt Q9NWZ3).
T1 construct: endogenous in cells; host or cells: OCI-LY10
T1 sequence (Q9NWZ3 1-460): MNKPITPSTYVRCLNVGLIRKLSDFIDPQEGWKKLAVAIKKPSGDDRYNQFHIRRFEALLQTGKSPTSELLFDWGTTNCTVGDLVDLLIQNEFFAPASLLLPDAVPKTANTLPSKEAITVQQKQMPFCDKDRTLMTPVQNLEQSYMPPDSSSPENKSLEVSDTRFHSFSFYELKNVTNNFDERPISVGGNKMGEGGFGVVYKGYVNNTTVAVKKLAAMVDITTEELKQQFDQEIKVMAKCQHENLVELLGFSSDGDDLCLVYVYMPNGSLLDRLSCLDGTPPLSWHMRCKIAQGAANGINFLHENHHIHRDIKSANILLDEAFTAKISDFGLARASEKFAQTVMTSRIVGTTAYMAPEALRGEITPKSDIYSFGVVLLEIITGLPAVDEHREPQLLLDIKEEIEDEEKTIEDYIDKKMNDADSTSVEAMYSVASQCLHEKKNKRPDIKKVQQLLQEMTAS
Put plainly: IRAK4 MSD degradation in OCI-LY10. The series is classed as cell-based. As to conditions: OCI-LY10 cells, 24 hrs, Meso Scale Discovery. An outline of the steps:
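OCI-LY10 cells treated 4 to 24 hours at 37° C. with 8-dose 1:3 series, top 1 to 10 μM. IRAK4 in lysates quantified by MSD sandwich immunoassay (mouse capture, rabbit detection, SULFO-TAG anti-rabbit). DC50 from three-parameter logistic fit.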
In the case of `Cc1cncc(C(=O)Nc2cc3cn([C@H]4CC[C@H](CN5CCC6(CN(c7cccc8c7n(C)c(=O)n8C7CCC(=O)NC7=O)C6)C(F)(F)C5)CC4)nc3cc2C(C)(C)O)c1` (some centres unmarked) [I-342], the DC50 was < 10 nM.
As for `Cn1c(=O)n(C2CCC(=O)NC2=O)c2cccc([C@@H]3CCN(C[C@H]4CC[C@H](c5cn6cc(NC(=O)c7cncc(C(F)(F)F)n7)c(C(C)(C)O)cc6n5)CC4)C[C@H]3F)c21` (some centres unmarked) [I-343], the DC50 is < 10 nM.
For the compound `Cn1c(=O)n(C2CCC(=O)NC2=O)c2cccc([C@@H]3CCN(C[C@H]4CC[C@H](n5cc6cc(NC(=O)c7cncc(C(F)(F)F)n7)c(S(C)(=O)=O)cc6n5)CC4)C[C@H]3F)c21` (some centres unmarked) [I-346], the DC50 was < 10 nM.
As to `COc1ccc2c(c1[C@@H]1CCN(C[C@H]3CC[C@H](n4cc5cc(NC(=O)c6cncc(C(F)(F)F)n6)ccc5n4)CC3)C[C@H]1F)n(C)c(=O)n2C1CCC(=O)NC1=O` (some centres unmarked) [I-347], the DC50 was < 10 nM.
As to `COc1ccc2c(c1[C@H]1CCN(C[C@H]3CC[C@H](n4cc5cc(NC(=O)c6cncc(C(F)(F)F)n6)ccc5n4)CC3)C[C@@H]1F)n(C)c(=O)n2C1CCC(=O)NC1=O` (some centres unmarked) [I-352], the DC50 was < 10 nM.
`COc1cc(NC(=O)c2cncc(C(F)(F)F)n2)cc2cn([C@H]3CC[C@H](CN4CC[C@@H](c5cccc6c5n(C)c(=O)n6C5CCC(=O)NC5=O)[C@H](F)C4)CC3)nc12` (some centres unmarked) [I-355]: the DC50 is < 10 nM.
As to `Cn1c(=O)n(C2CCC(=O)NC2=O)c2cccc([C@@H]3CCN(C[C@H]4CC[C@H](n5cc6cc(NC(=O)c7cncc(C(F)(F)F)n7)cc(F)c6n5)CC4)C[C@H]3F)c21` (some centres unmarked) [I-356], the DC50 was < 10 nM.
For the compound `Cc1cncc(C(=O)Nc2cc3cn([C@H]4CC[C@H](CN5CCC6(CCN(c7cccc8c7n(C)c(=O)n8C7CCC(=O)NC7=O)CC6)C(F)(F)C5)CC4)nc3cc2C(C)(C)O)c1` (some centres unmarked) [I-361], the DC50 is < 10 nM.
`Cn1c(=O)n(C2CCC(=O)NC2=O)c2cccc(N3CCC4(CCN(C[C@H]5CC[C@H](c6nc7cc(C(C)(C)O)c(NC(=O)c8cncc(C#N)c8)cc7s6)CC5)CC4(F)F)CC3)c21` (some centres unmarked) [I-364] registered a DC50 of 100 to 200 nM.
On to `Cn1c(=O)n(C2CCC(=O)NC2=O)c2cccc(N3CCC4(CCN(C[C@H]5CC[C@H](n6cc7cc(NC(=O)c8cncc(C(F)(F)F)c8)c(C(C)(C)O)cc7n6)CC5)CC4(F)F)CC3)c21` (some centres unmarked) [I-365], for which the DC50 was < 10 nM.
Regarding `Cn1c(=O)n(C2CCC(=O)NC2=O)c2cccc(N3CC4(CCN(C[C@H]5CC[C@H](n6cc7cc(NC(=O)c8cncc(C#N)c8)c(C(C)(C)O)cc7n6)CC5)CC4(F)F)C3)c21` (some centres unmarked) [I-366], the DC50 is < 10 nM.
With `Cn1c(=O)n(C2CCC(=O)NC2=O)c2cccc(N3CC4(CCN(C[C@H]5CC[C@H](c6nc7cc(C(C)(C)O)c(NC(=O)c8cncc(C#N)c8)cc7s6)CC5)CC4(F)F)C3)c21` (some centres unmarked) [I-367], the DC50 fell in the range of 10 to 100 nM.
Regarding `Cn1c(=O)n(C2CCC(=O)NC2=O)c2cccc(N3CC4(CCN(C[C@H]5CC[C@H](n6cc7cc(NC(=O)c8cncc(C(F)(F)F)c8)c(C(C)(C)O)cc7n6)CC5)CC4(F)F)C3)c21` (some centres unmarked) [I-373], the DC50 is < 10 nM.
Still for that read-out and setting: the same measure for `COc1cc(NC(=O)c2cncc(C(F)(F)F)n2)cc2cn([C@H]3CC[C@H](CN4CC[C@@H](c5cccc6c5n(C)c(=O)n6C5CCC(=O)NC5=O)C(F)(F)C4)CC3)nc12` (some centres unmarked) [I-374]: < 10 nM.
In the case of `Cn1c(=O)n(C2CCC(=O)NC2=O)c2cccc([C@@H]3CCN(C[C@H]4CC[C@H](n5cc6cc(NC(=O)c7cncc(C(F)(F)F)n7)cc(F)c6n5)CC4)CC3(F)F)c21` (some centres unmarked) [I-375], the DC50 is < 10 nM.
Regarding `Cn1c(=O)n(C2CCC(=O)NC2=O)c2cccc([C@@H]3CCN(C[C@H]4CC[C@H](n5cc6cc(NC(=O)c7cncc(C(F)F)n7)ccc6n5)CC4)CC3(F)F)c21` (some centres unmarked) [I-384], the DC50 is < 10 nM.

Test system in the next series: not listed separately
Kind of series: Rodent pharmacokinetics (rat PK). The series is classed as in vivo. The following applies: po, dosed intravenously or orally by gavage, plasma, read-out: F % (bioavailability). An outline of the steps:
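Rats were dosed IV or by oral gavage, with jugular blood taken predose and at 5 min (IV only), 15, 30 min and 1, 2, 4, 8, 24 h. Plasma was separated by centrifugation at 4 °C. Oral bioavailability (F %) is coded A (≥5%) or B (≤5%).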
On to `Cc1cncc(C(=O)Nc2cc3cn([C@H]4CC[C@H](CN5CCC6(CN(c7cccc8c7n(C)c(=O)n8C7CCC(=O)NC7=O)C6)C(F)(F)C5)CC4)nc3cc2C(C)(C)O)c1` (some centres unmarked) [I-342], for which the bioavailability was ≤ 5%.
`Cn1c(=O)n(C2CCC(=O)NC2=O)c2cccc([C@@H]3CCN(C[C@H]4CC[C@H](c5cn6cc(NC(=O)c7cncc(C(F)(F)F)n7)c(C(C)(C)O)cc6n5)CC4)C[C@H]3F)c21` (some centres unmarked) [I-343]: the bioavailability was ≤ 5%.
On to `Cn1c(=O)n(C2CCC(=O)NC2=O)c2cccc([C@@H]3CCN(C[C@H]4CC[C@H](n5cc6cc(NC(=O)c7cncc(C(F)(F)F)n7)c(S(C)(=O)=O)cc6n5)CC4)C[C@H]3F)c21` (some centres unmarked) [I-346], for which the bioavailability is ≤ 5%.
For `COc1ccc2c(c1[C@@H]1CCN(C[C@H]3CC[C@H](n4cc5cc(NC(=O)c6cncc(C(F)(F)F)n6)ccc5n4)CC3)C[C@H]1F)n(C)c(=O)n2C1CCC(=O)NC1=O` (some centres unmarked) [I-347], the bioavailability was ≥ 5%.
As to `COc1ccc2c(c1[C@H]1CCN(C[C@H]3CC[C@H](n4cc5cc(NC(=O)c6cncc(C(F)(F)F)n6)ccc5n4)CC3)C[C@@H]1F)n(C)c(=O)n2C1CCC(=O)NC1=O` (some centres unmarked) [I-352], the bioavailability was ≤ 5%.
For `COc1cc(NC(=O)c2cncc(C(F)(F)F)n2)cc2cn([C@H]3CC[C@H](CN4CC[C@@H](c5cccc6c5n(C)c(=O)n6C5CCC(=O)NC5=O)[C@H](F)C4)CC3)nc12` (some centres unmarked) [I-355], the bioavailability was ≤ 5%.
In the case of `Cn1c(=O)n(C2CCC(=O)NC2=O)c2cccc([C@@H]3CCN(C[C@H]4CC[C@H](n5cc6cc(NC(=O)c7cncc(C(F)(F)F)n7)cc(F)c6n5)CC4)C[C@H]3F)c21` (some centres unmarked) [I-356], the bioavailability is ≤ 5%.
The same measure, in the same setting: the same measure for `Cc1cncc(C(=O)Nc2cc3cn([C@H]4CC[C@H](CN5CCC6(CCN(c7cccc8c7n(C)c(=O)n8C7CCC(=O)NC7=O)CC6)C(F)(F)C5)CC4)nc3cc2C(C)(C)O)c1` (some centres unmarked) [I-361]: ≤ 5%.
`Cn1c(=O)n(C2CCC(=O)NC2=O)c2cccc(N3CCC4(CCN(C[C@H]5CC[C@H](c6nc7cc(C(C)(C)O)c(NC(=O)c8cncc(C#N)c8)cc7s6)CC5)CC4(F)F)CC3)c21` (some centres unmarked) [I-364]: the bioavailability was ≤ 5%.
Turning to `Cn1c(=O)n(C2CCC(=O)NC2=O)c2cccc(N3CCC4(CCN(C[C@H]5CC[C@H](n6cc7cc(NC(=O)c8cncc(C(F)(F)F)c8)c(C(C)(C)O)cc7n6)CC5)CC4(F)F)CC3)c21` (some centres unmarked) [I-365], the bioavailability was ≥ 5%.
Turning to `Cn1c(=O)n(C2CCC(=O)NC2=O)c2cccc(N3CC4(CCN(C[C@H]5CC[C@H](n6cc7cc(NC(=O)c8cncc(C#N)c8)c(C(C)(C)O)cc7n6)CC5)CC4(F)F)C3)c21` (some centres unmarked) [I-366], the bioavailability was ≤ 5%.
Consider `Cn1c(=O)n(C2CCC(=O)NC2=O)c2cccc(N3CC4(CCN(C[C@H]5CC[C@H](c6nc7cc(C(C)(C)O)c(NC(=O)c8cncc(C#N)c8)cc7s6)CC5)CC4(F)F)C3)c21` (some centres unmarked) [I-367], for which the bioavailability is ≥ 5%.
Turning to `Cn1c(=O)n(C2CCC(=O)NC2=O)c2cccc(N3CC4(CCN(C[C@H]5CC[C@H](n6cc7cc(NC(=O)c8cncc(C(F)(F)F)c8)c(C(C)(C)O)cc7n6)CC5)CC4(F)F)C3)c21` (some centres unmarked) [I-373], the bioavailability is ≤ 5%.
On the same count and under the same terms, then `COc1cc(NC(=O)c2cncc(C(F)(F)F)n2)cc2cn([C@H]3CC[C@H](CN4CC[C@@H](c5cccc6c5n(C)c(=O)n6C5CCC(=O)NC5=O)C(F)(F)C4)CC3)nc12` (some centres unmarked) [I-374], with ≤ 5%; and `Cn1c(=O)n(C2CCC(=O)NC2=O)c2cccc([C@@H]3CCN(C[C@H]4CC[C@H](n5cc6cc(NC(=O)c7cncc(C(F)(F)F)n7)cc(F)c6n5)CC4)CC3(F)F)c21` (some centres unmarked) [I-375], with ≤ 5%; and `Cn1c(=O)n(C2CCC(=O)NC2=O)c2cccc([C@@H]3CCN(C[C@H]4CC[C@H](n5cc6cc(NC(=O)c7cncc(C(F)F)n7)ccc6n5)CC4)CC3(F)F)c21` (some centres unmarked) [I-384], with ≤ 5%.
